From PubChem BioAssay AID248 (DTP/NCI, 2004)
Values joined by “and” are separate entries in the source; they are usually repeats but may differ in a detail not shown here. Equal values may be shown once. Toxic doses and inconclusive results are not listed.

Test system: L1210 leukemia ip in BDF1 mice, survival T/C
Experiment: NCI In Vivo Anticancer Drug Screen. Data for tumor model L1210 Leukemia (intraperitoneal) in B6D2F1 (BDF1) mice
Conditions: endpoint: mean survival time, higher = longer survival
Procedure, shortened: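 Each compound was tested against a transplantable tumor grown in mice. The endpoint was survival, with treated animals benchmarked against vehicle controls as a simple ratio.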

[1] = dose: 100.0 mg/kg/injection, schedule: Q01DX001 (ip), vehicle: carboxymethylcellulose (CMC)
[2] = dose: 200.0 mg/kg/injection, schedule: Q01DX001 (ip), vehicle: carboxymethylcellulose (CMC)
[3] = dose: 400.0 mg/kg/injection, schedule: Q01DX001 (ip), vehicle: carboxymethylcellulose (CMC)
[4] = dose: 100.0 mg/kg/injection, schedule: Q01DX009 (ip), vehicle: saline with Tween-80
[5] = dose: 200.0 mg/kg/injection, schedule: Q01DX009 (ip), vehicle: saline with Tween-80
[6] = dose: 400.0 mg/kg/injection, schedule: Q01DX009 (ip), vehicle: saline with Tween-80
[7] = dose: 100.0 mg/kg/injection, schedule: Q04DX003 (ip), vehicle: saline with Tween-80
[8] = dose: 200.0 mg/kg/injection, schedule: Q04DX003 (ip), vehicle: saline with Tween-80
[9] = dose: 400.0 mg/kg/injection, schedule: Q04DX003 (ip), vehicle: saline with Tween-80

With `Cc1cc(N(CCCl)CCCl)ccc1C=Nc1ccc(-c2nc(Cc3ccccc3)sc2C)cc1` the T/C [1] was 117 % of control, the T/C [2] was 98 % of control and the T/C [3] was 110 % of control.

For `COC1/C=C\CC2=CCCC=C2CC1` (stereo unspecified), the T/C (dose: 50.0 mg/kg/injection, schedule: Q01DX009 (ip), vehicle: saline with Tween-80) was 112 % of control, the T/C [4] was 123 % of control and the T/C [5] was 105 % of control.

For `Cc1ccccc1Sc1cc2ccccc2c2ccccc12`, the T/C (dose: 100.0 mg/kg/injection, schedule: Q01DX001 (ip), vehicle: saline) was 94 % of control, the T/C [4] was 96 % of control and the T/C (dose: 200.0 mg/kg/injection, schedule: Q01DX001 (ip), vehicle: saline) was 97 % of control. The T/C [5] was 98 % of control, the T/C (dose: 400.0 mg/kg/injection, schedule: Q01DX001 (ip), vehicle: saline) was 94 % of control and the T/C [6] was 101 % of control.

With `Nc1ncc(-c2ccc(CNc3ccc(C(=O)NC(CC(=O)O)CC(=O)O)cc3)cc2)c(N)n1` the T/C (dose: 10.5 mg/kg/injection, schedule: Q01DX009 (ip), vehicle: saline) was 122 % of control, the T/C (dose: 12.5 mg/kg/injection, schedule: Q01DX009 (ip), vehicle: saline) was 114 % of control and the T/C (dose: 14.5 mg/kg/injection, schedule: Q01DX009 (ip), vehicle: saline) was 116 % of control. For the same compound, the T/C (dose: 18.0 mg/kg/injection, schedule: Q01DX009 (ip), vehicle: saline) was 114 % of control, the T/C (dose: 22.0 mg/kg/injection, schedule: Q01DX009 (ip), vehicle: saline) was 116 % of control and the T/C (dose: 50.0 mg/kg/injection, schedule: Q01DX009 (ip), vehicle: saline) was 165 % of control and 185 % of control. The T/C (dose: 66.0 mg/kg/injection, schedule: Q01DX001 (ip), vehicle: saline) was 122 % of control, the T/C (dose: 75.0 mg/kg/injection, schedule: Q01DX001 (ip), vehicle: saline) was 112 % of control and 119 % of control and the T/C (dose: 75.0 mg/kg/injection, schedule: Q01DX009 (ip), vehicle: saline) was 107 % of control. For the same compound, the T/C (dose: 150.0 mg/kg/injection, schedule: Q01DX001 (ip), vehicle: saline) was 115 % of control.

`CC(c1ccccc1)n1cnc2c(=O)[nH]cnc21` (stereo unspecified) was tested, and the T/C (dose: 50.0 mg/kg/injection, schedule: Q01DX001 (ip), vehicle: carboxymethylcellulose (CMC)) was 106 % of control, the T/C [1] was 101 % of control and the T/C [2] was 101 % of control. For the same compound, the T/C [3] was 95 % of control.

In the case of `CCCCCCCCSSCCCCCCCC`, the T/C [4] is reported as 97 % of control, the T/C (dose: 100.0 mg/kg/injection, schedule: Q04DX003 (ip), vehicle: saline) is reported as 95 % of control and the T/C [5] is reported as 95 % of control. The T/C (dose: 200.0 mg/kg/injection, schedule: Q04DX003 (ip), vehicle: saline) was 98 % of control, the T/C [6] was 91 % of control and the T/C (dose: 400.0 mg/kg/injection, schedule: Q04DX003 (ip), vehicle: saline) was 95 % of control.

In the case of `COc1ccc(OC)c(NC(=O)Oc2ccc(Cl)c(C)c2)c1`, the T/C [7] is reported as 90 % of control, the T/C [8] is reported as 87 % of control and the T/C [9] is reported as 93 % of control.

`CC(C)CC(NC(=O)OCc1ccccc1)C(=O)O` (stereo unspecified) was tested, and the T/C [4] was 87 % of control, the T/C [7] was 103 % of control and the T/C [5] was 97 % of control. The T/C [8] was 101 % of control, the T/C [6] was 95 % of control and the T/C [9] was 97 % of control.

For `CC(CN(C)C)CN1c2ccccc2Sc2ccccc21` (stereo unspecified), the T/C (dose: 3.12 mg/kg/injection, schedule: Q04DX003 (ip), vehicle: saline with Tween-80) was 105 % of control, the T/C (dose: 3.12 mg/kg/injection, schedule: Q04DX003 (ip), vehicle: saline) was 96 % of control and the T/C (dose: 6.12 mg/kg/injection, schedule: Q04DX003 (ip), vehicle: saline with Tween-80) was 101 % of control. For the same compound, the T/C (dose: 6.25 mg/kg/injection, schedule: Q04DX003 (ip), vehicle: saline) was 100 % of control and 104 % of control, the T/C (dose: 12.5 mg/kg/injection, schedule: Q04DX003 (ip), vehicle: saline with Tween-80) was 105 % of control and the T/C (dose: 12.5 mg/kg/injection, schedule: Q04DX003 (ip), vehicle: saline) was 102 % of control and 113 % of control. The T/C (dose: 25.0 mg/kg/injection, schedule: Q04DX003 (ip), vehicle: saline with Tween-80) was 103 % of control, the T/C (dose: 25.0 mg/kg/injection, schedule: Q04DX003 (ip), vehicle: saline) was 102 % of control and the T/C (dose: 50.0 mg/kg/injection, schedule: Q04DX003 (ip), vehicle: saline with Tween-80) was 120 % of control.

With `O=C(O)Cc1ccc(NC(=O)NCCCl)cc1` the T/C [1] was 87 % of control, the T/C [2] was 98 % of control and the T/C [3] was 93 % of control.

For `Clc1ccc(N=Cc2ccc3c(c2)OCO3)cc1`, the T/C (dose: 100.0 mg/kg/injection, schedule: Q01DX009 (ip), vehicle: other) was 93 % of control, the T/C (dose: 200.0 mg/kg/injection, schedule: Q01DX009 (ip), vehicle: other) was 98 % of control and the T/C (dose: 400.0 mg/kg/injection, schedule: Q01DX009 (ip), vehicle: other) was 90 % of control.
